Series [1] has as its system renin mRNA in As4.1hVDR cells. The experiment in a line: Renin suppression assay (renin mRNA, Northern blot). Conditions: 10^−10, 10^−9 and 10^−8 M, 24 hours.
In series [2] the test system is HL-60 cells. The experiment in a line: HL-60 (CD14) cell differentiation. Type of series: cell-based. As to conditions: Homo sapiens, HL-60 cell differentiation, read-out: HL-60(CD14) ED50.
In series [3] the test system is NHEK. The experiment in a line: Proliferation assay, normal human keratinocytes NHEK. The series is classed as cell-based. As to conditions: 72 h culture, CyQuant proliferation assay. How it is done:
(§1) Bladder cancer cell lines (T24, RT112, HT1376 and RT4 are human bladder cancer cell lines; NHEK are normal human keratinocytes) were obtained from the European Collection of Cell Cultures (Salisbury, UK). […] After a further 72 h of culture, cell proliferation was measured using a fluorescence-based proliferation assay kit. (CyQuant Cell Proliferation Assay Kit, Molecular Probes, Eugene, Oreg., USA). The IC50 was calculated from the regression curve of the titration data.

For series [4], the system named is HT 1376. In words: Proliferation assay, bladder cancer cell line HT 1376. Type of series: cell-based. As to conditions: Homo sapiens, 72 h culture, CyQuant proliferation assay. The protocol: as §1
The test system of series [5] is IFN-γ production. The experiment in a line: IFN-γ production in the mixed leukocyte response (MLR). Type of series: cell-based. Conditions: MLR of allogeneic PBMC, 5 days, ELISA. The protocol: Immature dendritic cells (DC) were prepared as described in Romani, N. et al., J. Immunol. Meth.
On the technique in general: ELISA stands for enzyme-linked immunosorbent assay.

For series [6], the system named is RT112. In words: Proliferation assay, bladder cancer cell line RT112. Type of series: cell-based. As to conditions: Homo sapiens, RT-112; 72 h culture, CyQuant proliferation assay. How it is done:
as §1

A short description of series [7]: in vivo. Conditions: female, C57BL/6, mouse, po.
Series [8] has as its system RT4. The experiment in a line: Proliferation assay, bladder cancer cell line RT4. Type of series: cell-based. As to conditions: Homo sapiens, RT-4; 72 h culture, CyQuant proliferation assay. How it is done:
as §1

The target of series [9] is T1, VDR (Homo sapiens, UniProt P11473).
T1 sequence (P11473 1-427): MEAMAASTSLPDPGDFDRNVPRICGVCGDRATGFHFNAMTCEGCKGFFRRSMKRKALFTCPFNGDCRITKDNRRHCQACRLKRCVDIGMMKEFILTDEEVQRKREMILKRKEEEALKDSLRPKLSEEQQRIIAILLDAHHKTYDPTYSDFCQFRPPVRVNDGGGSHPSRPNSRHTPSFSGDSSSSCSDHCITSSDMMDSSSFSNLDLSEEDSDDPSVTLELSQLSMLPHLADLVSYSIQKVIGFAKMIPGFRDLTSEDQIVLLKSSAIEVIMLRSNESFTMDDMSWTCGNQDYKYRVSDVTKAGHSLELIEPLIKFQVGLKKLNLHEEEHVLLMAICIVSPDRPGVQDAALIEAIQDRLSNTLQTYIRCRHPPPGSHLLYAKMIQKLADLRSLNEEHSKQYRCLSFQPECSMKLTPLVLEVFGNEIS
In words: VDR binding. Conditions: 1,25(OH)2D3 100.0.

For series [10], the system named is ECV. The experiment in a line: Proliferation assay, bladder cancer cell line ECV. Type of series: cell-based. Conditions: Homo sapiens; 72 h culture, CyQuant proliferation assay.

Marks after values point to notes of the source that are not given here.

These results are taken from patent US20080280859A1, “GEMINI VITAMIN D3 COMPOUNDS AND METHODS OF USE THEREOF” (BioXell S.p.A., priority 2005, published 2008).

In the case of `C=C1/C(=C\C=C2/CCC[C@]3(C)[C@@H]([C@H](CCCC(C)(C)O)CC[C@@H](O)C(C)(C)O)CC[C@@H]23)C[C@@H](O)C[C@@H]1O` [Compound 3, 1,25-Dihydroxy-21-(2R,3-dihydroxy-3-methyl-butyl)-20R-cholecalciferol], in series [1], the “renin suppression activity compared with 1,25(OH)2D3” value is listed as “comparable to that of 1,25(OH)2D3”. Besides, in series [2], the EC50 amounted to 0.00217 µM. Further, the concentration for half-maximal inhibition (IC50) in series [3] was 46.5 µM; in series [4] it was 98 µM; in series [5] (120 h, read-out: INF-γ IC50), 66 pM; in series [6] it was 25 µM; in series [8] it was 71 µM; in series [10], 57.9 µM. Also, the “down regulation of INF-γ (class symbol)” value in series [5] is given as “* (good down regulation of INF-γ (e.g., less than 100 IC50 pM))”. In series [7], this compound gave an MTD of 0.03 mg/kg. The “VDR Binding” value in series [9] was 42.10*.

In general, IC50 refers to the concentration that gives 50% inhibition.
